According to patent publication US20160320368A1, “METHOD AND APPARATUS FOR PREDICTING EFFECTIVE DOSE OR SENSITIVITY OF 5-HYDROXY-1H-IMIDAZOLE-4-CARBOXAMIDE, METHOD FOR DETERMINING AMOUNT OF XANTHOSINE MONOPHOSPHATE, AND TREATMENT AGENT AND METHOD FOR TREATING MYELODYSPLASTIC SYNDROME” (FUJIFILM Corporation, priority 2014, published 2016):

How the values were obtained:
[1] = system: XMP in whole blood; assay: XMP in whole blood (Example 5); format: cell-based, human; conditions: 37° C., 8 hours, non-treated = 100%
Experimental: A ¾ hydrate of Compound A was used s a test compound.
450 μL of the blood collected from two healthy individuals by heparinized blood collection (Analyte A and Analyte B) was added to each tube, and 50 μL of a PBS solution of the test compound (0 μg/mL, 10 μg/mL, 30 μg/mL, 100 μg/mL, 300 μg/mL, or 1000 μg/mL in terms of Compound A) for each concentration was added to each tube. The reaction mixture was stirred in an incubator at 37° C. for 8 hours.
(§1) 400 μL of methanol was added to 100 μL of the blood sample obtained in (1). After stirring, 400 μL of chloroform was added, followed by further stirring. 120 μL of ultrapure water was added thereto, followed by stirring and then centrifugation at 4° C. and 10000×g for 15 min. 400 μL of the aqueous phase was recovered and added to an ultrafiltration tube, followed by centrifugation at 12° C. and 9200×g for 2 hours. The filtrate was dried under reduced pressure at 40° C. for 2 hours by using a centrifugal evaporator. After drying, the resulting product was stored in a freezer at −80° C.
The samples obtained in (2-1) and (2-2) were returned to room temperature and 40 μL of ultrapure water was added to each sample. The mixture was stirred and centrifuged at 4° C. and 21500×g for 5 min. 35 μL of the supernatant was transferred to a vial. After storage at 4° C., XMP in samples was determined in the LC-MS/MS determination instrument, LC conditions and MS/MS conditions described in Example 3 (3).
Amounts of XMP (%) were calculated assuming that amounts of XMP in a non-Compound A treated group are defined as 100%.

[2] = system: XMP in human myeloid leukemia cells SKM-1; assay: XMP in human myeloid leukemia cells SKM-1 (LC-MS/MS); format: cell-based; conditions: 24 hours; for Amount of XMP (%): non-treated = 100%; for Decline rate of XMP: 100−amount of XMP (%)
Experimental: (§2) A ¾ hydrate of Compound A was used as a test compound.
SKM-1 was used as a human myeloid leukemia cell.
2×10^7 human myeloid leukemia cells were suspended in a culture flask containing 18 mL of an RPMI1640 medium (manufactured by Life Technologies, Inc.). 2 mL of a PBS solution of the test compound (0 μg/mL, 10 μg/mL, 30 μg/mL, 100 μg/mL, 300 μg/mL, or 1000 μg/mL in terms of Compound A) was added to the flask which was then incubated at 37° C. under 5% CO2 for 24 hours. After centrifugation at 20° C. and 300×g for 3 min, the supernatant was removed and suspended in 10 mL of a PBS solution. 10 μL of the suspension was aliquoted and cells were counted using TC10 (manufactured by BioRad). After centrifugation and 300×g for 5 min, the supernatant was removed. After stirring with addition of 1000 μL of methanol, 500 μL of ultrapure water was added thereto, followed by further stirring. 600 μL of the reaction solution was divided into each of two tubes, and 400 μL of chloroform was added to each tube. The reaction solution was stirred and then centrifuged at 4° C. and 10000×g for 15 min. 400 μL of the aqueous phase was recovered and added to an ultrafiltration tube, followed by centrifugation at 12° C. and 9200×g for about 2 hours. The filtrates were pooled in one tube and then dried under reduced pressure at 40° C. for 2 hours by using a centrifugal evaporator. After drying, the resulting product was stored in a freezer at −80° C.
The samples obtained in (1) were returned to room temperature, to each of which 50 μL of 5 mmol/L ammonium formate containing 4 ng/μL of 2′-fluoro-2′-deoxycytidine monophosphate was then added, followed by stirring. 12.5 μL of the supernatant was transferred to a vial, and XMP in the samples was determined in the following determining conditions.
Amounts of XMP (%) were calculated according to the following equation, assuming that the XMP value of a non-Compound A treated group is defined as 100%.
Amount of XMP (%)=((peak area of XMP)/((peak area of 2′-fluoro-2′-deoxycytidine monophosphate)×(number of cells)))/((peak area of XMP of untreated group)/((peak area of 2′-fluoro-2′-deoxycytidine monophosphate of untreated group) (number of cells of untreated group)))×100
The decline rate of XMP (%) was calculated according to the following equation.
Decline rate of XMP (%)=100−amount of XMP (%)

[3] = system: XMP in whole blood; assay: XMP in whole blood (Example 8); format: cell-based, human; conditions: 37° C., 8 hours, non-treated = 100%
Experimental: as §2
450 μL of the blood collected from healthy individuals by heparinized blood collection was added to each tube, and 50 μL of a PBS solution of the test compound (0 μg/mL, 1 μg/mL, 10 μg/mL, or 100 μg/mL in terms of Compound A) for each concentration was added to each tube. The reaction mixture was stirred in an incubator at 37° C. for 8 hours.
as §1
The samples obtained in (2) were returned to room temperature and 40 μL of ultrapure water was added to each sample. The mixture was stirred and centrifuged at 4° C. and 21500×g for 5 min. 35 μL of the supernatant was transferred to a vial. After storage at 4° C., XMP, GMP and GTP in the samples were determined in the LC-MS/MS determination instrument and LC conditions described in Example 3 (3), and MS/MS conditions shown in Table 15.
Amounts of XMP, GMP and GTP (%) were calculated assuming that the XMP, GMP and GTP values of a non-Compound A treated group (peak area value) are defined as 100%.

`NC(=O)c1nc[nH]c1O` [Compound A, 5-Hydroxy-1H-imidazole-4-carboxamide] was tested, and the “Amount of XMP (%) Analyte A Whole blood” value ([1]; Compound A 1 μg/mL) was 57%, the “Amount of XMP (%) Analyte B Whole blood” value ([1]; Compound A 1 μg/mL) was 44% and the “Amount of XMP (%) Analyte A Whole blood” value ([1]; Compound A 3 μg/mL) was 53%. For the same compound, the “Amount of XMP (%) Analyte B Whole blood” value ([1]; Compound A 3 μg/mL) was 27%, the “Amount of XMP (%) Analyte A Whole blood” value ([1]; Compound A 10 μg/mL) was 47% and the “Amount of XMP (%) Analyte B Whole blood” value ([1]; Compound A 10 μg/mL) was 15%. For the same compound, the “Amount of XMP (%) Analyte A Whole blood” value ([1]; Compound A 30 μg/mL) was 26%, the “Amount of XMP (%) Analyte B Whole blood” value ([1]; Compound A 30 μg/mL) was 11% and the “Amount of XMP (%) Analyte A Whole blood” value ([1]; Compound A 100 μg/mL) was 15%. For the same compound, the “Amount of XMP (%) Analyte B Whole blood” value ([1]; Compound A 100 μg/mL) was 9%, the “Amount of XMP (%)” value ([2]; SKM-1, Compound A 1 μg/mL) was 57% and the “Decline rate of XMP” value ([2]; SKM-1, Compound A 1 μg/mL) was 43%. For the same compound, the “Amount of XMP (%)” value ([2]; SKM-1, Compound A 10 μg/mL) was 45%, the “Decline rate of XMP” value ([2]; SKM-1, Compound A 10 μg/mL) was 55% and the “Amount of XMP (%)” value ([2]; SKM-1, Compound A 100 μg/mL) was 17%. The “Decline rate of XMP” value ([2]; SKM-1, Compound A 100 μg/mL) was 83%, the “Amount of each compound in whole blood (%) XMP” value (from here on “Amount … (%) XMP”) ([3]; Compound A 1 μg/mL) was 55% and the “Amount … (%) XMP” value ([3]; Compound A 10 μg/mL) was 30%. For the same compound, the “Amount … (%) XMP” value ([3]; Compound A 100 μg/mL) was 13%.
